≈ marks a conversion by molar mass, not a printed value. Entries after “also recorded” stand apart in the source; their conditions may differ. Counter-ions that a name gives are not always drawn. Like-named read-outs stand apart in the source and are kept apart here.
How the values were obtained:
Assay type in all cases: physicochemical
[1] = Thermodynamic aqueous solubility
Description: Aqueous solubility was determined by suspending sufficient compound in water to give a maximum final concentration of ≧10 mg/ml of the parent free-form of the compound. The suspension was equilibrated at 25° C. for 24 hours then the pH was measured. The suspension was then filtered through a glass fiber C filter. The filtrate was then diluted by an appropriate factor e.g., 101. Quantitation was by HPLC with reference to a standard solution of approximately 0.25 mg/ml in DMSO. Different volumes of the standard, diluted and undiluted sample solutions were injected. The solubility was calculated using the peak areas determined by integration of the peak found at the same retention time as the principal peak in the standard injection.
Analysis was performed on an Agilent HP1100 series system equipped with a diode array detector and using ChemStation software vB.02.01-SR1.

[2] = Storage stability of free base and salts (XRPD, IC, 1H NMR pre- and post-storage); conditions: stability study under storage; XRPD
[3] = Aqueous solubility studies of bis-mesylate forms (slurry in deionised water, HPLC, XRPD)
Description: Purity and concentration analyses were carried out using the following method:
• Pan Number 186003045 Column Temperature: 25° C. Autosampler Temperature: 5° C. Detection: 226 nm Mobile Phase A: 95:5:0.1% Water:Methanol:TFA Mobile Phase B: 95:5:0.1% Methanol:Water:TFA Gradient: See table below for conditions Flow Rate: 1.0 mL/minute Injection Volume: 10 μl Analysis Time: 36 minutes Re-equilibration Time: 4 minutes Data Collection time: 36 minutes Needle Wash: 100% Methanol
Slurries of Form A, Form B, Form C, Form D, Form E and Form I were created in deionised water and shaken for about 24 hours at ambient temperature (about 22° C.). The resulting solutions were then analyzed by HPLC and the aqueous solubility was determined. The remaining solids were analyzed by XRPD to determine if any form changes had occurred during slurrying.

[4] = Dynamic Vapour Sorption (DVS)
Description: Approximately 10 mg of sample was placed into a mesh vapour sorption balance pan and loaded into a DVS-1 dynamic vapour sorption balance by Surface Measurement Systems. The sample was subjected to a ramping profile of 0-90%, 90-0% relative humidity (RH) at 10% increments for anhydrous samples and 30-90%, 90-0%, 0-90%, 90-0% for hydrated samples, maintaining the sample at each step until a stable weight had been achieved (99.5% step completion). The weight changes during the sorption/desorption cycles were plotted, allowing the hygroscopic nature of the sample to be determined.

[5] = Stability testing of bis-mesylate forms for 1 week (XRPD, HPLC purity)
Description: Form A, Form B, Form C, Form D, Form E and Form I were exposed to environments of 40° C./75% RH, ambient light (about 22° C.) and elevated temperature (80° C.) for 1 week to determine the stability. The resulting solids were analyzed by XRPD to establish if any form changes had occurred and by HPLC to determine purity.

[6] = about 24 hours, ambient temperature

Row | SMILES | polymorphic form after slurrying in deionised water (XRPD) [3, 6] | DVS (summary Table 21) [4] | DVS desorption behaviour / hysteresis [4] | hygroscopicity (DVS) [4] | polymorphic form after DVS analysis (XRPD) [4] | HPLC purity after stability test ([5]; 40° C./75% RH) | polymorphic form after stability test (XRPD) ([5]; 40° C./75% RH) | HPLC purity after stability test ([5]; 80° C.) | polymorphic form after stability test (XRPD) ([5]; 80° C.) | polymorphic form after stability test (XRPD) ([5]; ambient light (about 22° C.)) | HPLC purity after stability test ([5]; ambient temperature) | also measured
1 | Nc1ncccc1-c1nc2ccc(-c3ccccc3)nc2n1-c1ccc(C2(N)CCC2)cc1 [Compound A free base, 3-(3-(4-(1-aminocyclobutyl)phenyl)-5-phenyl-3H-imidazo[4,5-b]pyridin-2-yl)pyridin-2-amine] | – | – | – | – | – | – | – | – | – | – | – | solubility in water (qualitative) [1]: insoluble in water
2 | Nc1ncccc1-c1nc2ccc(-c3ccccc3)nc2n1-c1ccc(C2(N)CCC2)cc1 [Compound A tris-HCl salt, 3-(3-(4-(1-aminocyclobutyl)phenyl)-5-phenyl-3H-imidazo[4,5-b]pyridin-2-yl)pyridin-2-amine] | – | – | – | – | – | – | – | – | – | – | – | solubility in water (qualitative) [1]: highly soluble in water; change of salt under storage [2]: partially transformed to bis-HCl salt and/or mono-HCl salt
3 | Nc1ncccc1-c1nc2ccc(-c3ccccc3)nc2n1-c1ccc(C2(N)CCC2)cc1 [Form A, 3-(3-(4-(1-aminocyclobutyl)phenyl)-5-phenyl-3H-imidazo[4,5-b]pyridin-2-yl)pyridin-2-amine] | converted to Form E | Moderately | No significant hysteresis | moderate hygroscopicity | consistent with Form A; also recorded: Form A post | about 99.8% | No change | about 99.8% | No change | No change | about 99.7% | solubility at 24 h ([3]; deionised water, 22 °C, water, thermodynamic from solid, deionised water, about 24 hours, ambient temperature (about 22° C.); read-out: aqueous solubility (HPLC concentration analysis)): ~383 mg/mL (≈ 886 mM); DVS water uptake ([4]; up to 70% RH): about 2.4%
4 | Nc1ncccc1-c1nc2ccc(-c3ccccc3)nc2n1-c1ccc(C2(N)CCC2)cc1 [Form B, 3-(3-(4-(1-aminocyclobutyl)phenyl)-5-phenyl-3H-imidazo[4,5-b]pyridin-2-yl)pyridin-2-amine] | converted to Form E | Gradual uptake | gradual loss from 90% down to 0% RH | – | – | about 99.8% | converted to Form J | about 99.8% | Form I | remained unchanged | about 99.7% | –
5 | Nc1ncccc1-c1nc2ccc(-c3ccccc3)nc2n1-c1ccc(C2(N)CCC2)cc1 [Form C, 3-(3-(4-(1-aminocyclobutyl)phenyl)-5-phenyl-3H-imidazo[4,5-b]pyridin-2-yl)pyridin-2-amine] | converted to Form E | Non-hygroscopic | – | non-hygroscopic | consistent with Form C; also recorded: Form C post | about 99.9% | No change | about 99.9% | No change | No change | about 99.9% | DVS total water uptake ([4]; up to 90% RH): about 0.54%
6 | Nc1ncccc1-c1nc2ccc(-c3ccccc3)nc2n1-c1ccc(C2(N)CCC2)cc1 [Form D, 3-(3-(4-(1-aminocyclobutyl)phenyl)-5-phenyl-3H-imidazo[4,5-b]pyridin-2-yl)pyridin-2-amine] | converted to Form E | Hydration occurs | gradual loss of water and hence dehydration was observed as the relative humidity was decreased below 40% RH | – | – | about 99.9% | converted to Form J | about 99.9% | Form I | remained unchanged | about 99.9% | DVS water uptake ([4]; second sorption cycle, between 30% and 50% RH, after dehydration at 0% RH): about 12%
7 | Nc1ncccc1-c1nc2ccc(-c3ccccc3)nc2n1-c1ccc(C2(N)CCC2)cc1 [Form E, 3-(3-(4-(1-aminocyclobutyl)phenyl)-5-phenyl-3H-imidazo[4,5-b]pyridin-2-yl)pyridin-2-amine] | remained unchanged; also recorded: Form E | Two hydration | dehydration occurred below 10% RH | non-hygroscopic | RH Form E post | about 99.8% | remained unchanged | about 99.8% | some differences were observed | remained unchanged | about 99.7% | solubility at 24 h ([3]; 22 °C, water, thermodynamic from solid, deionised water, about 24 hours, ambient temperature (about 22° C.); read-out: aqueous solubility (HPLC concentration analysis)): ~347 mg/mL (≈ 802 mM); DVS water uptake ([4]; second sorption cycle, below 20% RH): about 2.78%; DVS further water uptake ([4]; second sorption cycle, between 20% and 40% RH): 5.5%
8 | Nc1ncccc1-c1nc2ccc(-c3ccccc3)nc2n1-c1ccc(C2(N)CCC2)cc1 [Form I, 3-(3-(4-(1-aminocyclobutyl)phenyl)-5-phenyl-3H-imidazo[4,5-b]pyridin-2-yl)pyridin-2-amine] | converted to Form E | Hydration occurs | gradual loss of water/dehydration below 50% RH | – | Form I post | about 99.8% | conversion to Form J | about 99.9% | remained unchanged | remained unchanged | about 99.6% | DVS water uptake ([4]; sorption cycle, between 40% and 50% RH): about 10%

— patent publication US9422283B2, “Salts and polymorphs of a substituted imidazopyridinyl-aminopyridine compound” (ArQule, Inc., priority 2014, dated 2016)
